From ChEMBL document CHEMBL4342446, “Isopimarane Diterpenoids from the Rhizomes of Kaempferia marginata and Their Potential Anti-inflammatory Activities” (J Nat Prod, 2020) come the findings set out here.

The test system of data set [1] is RAW264.7. Kind of data set: Anti-inflammatory activity in mouse RAW264.7 cells assessed as inhibition of lipopolysaccharide-induced nitric oxide production. Type of data set: functional, cell-based.
For data set [2], the system named is RAW264.7. As to the kind of experiment: Cytotoxicity against mouse RAW264.7 cells. The class given is cell-based.

For `C=C[C@]1(C)C=C2CC[C@H]3C(C)(C)[C@H](O)C[C@H](O)[C@]3(C)[C@H]2[C@H](O)C1`, the IC50 (commonly the point on the concentration scale where inhibition reaches its midpoint) in the data set on RAW264.7 [1] worked out at 28.1 µM. In the data set on RAW264.7 [2], the Activity result was “Non-Toxic”.

Consider `C=C[C@]1(C)C=C2CC[C@H]3C(C)(C)[C@@H](O)C[C@H](O)[C@]3(C)[C@H]2[C@H](O)C1`, for which, in the data set with RAW264.7 [1], the IC50 was > 50 µM.

As for `C=C[C@]1(C)C=C2C(=O)C[C@H]3C(C)(C)C[C@H](O)C[C@]3(C)[C@H]2CC1`, the IC50 with RAW264.7 [1] is > 50 µM.

Consider `C=C[C@]1(C)C=C2CC[C@H]3C(C)(C)C[C@H](O)[C@H](O)[C@]3(C)[C@H]2CC1`, for which the IC50 in the data set on RAW264.7 [1] was determined as 40.3 µM.

`C=C[C@]1(C)C=C2C[C@@H](OC(C)=O)[C@H]3C(C)(C)[C@@H](O)CC(=O)[C@]3(C)[C@H]2[C@@H](O)C1`: the IC50 with RAW264.7 [1] was > 50 µM.

For `C=C[C@]1(C)C=C2[C@H](O)C[C@H]3C(C)(C)CC[C@H](O)[C@]3(C)[C@H]2[C@H](O)C1`, in the data set on RAW264.7 [1], the IC50 was > 50 µM.

As for `C=C[C@]1(C)C=C2C(=O)C[C@H]3C(C)(C)CC[C@H](O)[C@]3(C)[C@H]2CC1`, in the data set with RAW264.7 [1], the IC50 is > 50 µM.

Regarding `C=C[C@]1(C)C=C2C[C@@H](O)[C@H]3C(C)(C)C[C@H](O)[C@H](O)[C@]3(C)[C@H]2CC1`, the IC50 in the data set on RAW264.7 [1] is > 50 µM.

As for `C=C[C@]1(C)C=C2CC[C@H]3C(C)(C)CC[C@H](O)[C@]3(C)[C@H]2CC1`, the IC50 in the data set with RAW264.7 [1] is 50 µM.

As for `C=C[C@]1(C)C=C2CC[C@H]3C(C)(C)CC[C@H](O)[C@]3(C)[C@H]2[C@H](O)C1`, the IC50 in the data set on RAW264.7 [1] came out at 36.7 µM.

As to `C=C[C@]1(C)C=C2CC[C@H]3C(C)(C)C[C@H](O)[C@H](OC(C)=O)[C@]3(C)[C@H]2CC1`, the half-inhibitory concentration (IC50) with RAW264.7 [1] is > 50 µM.

`C=C[C@]1(C)C=C2[C@@H](O)C[C@H]3C(C)(C)C[C@H](O)[C@H](O)[C@]3(C)[C@H]2CC1`: the IC50 in the data set with RAW264.7 [1] is > 50 µM.

For `C[C@@H]1C[C@H]2[C@@H]3CCC4=CC(=O)C=C[C@]4(C)[C@@]3(F)[C@@H](O)C[C@]2(C)[C@@]1(O)C(=O)CO` [DEXAMETHASONE], the IC50 with RAW264.7 [1] was 5.5 µM.
